Where two headings read alike, the source gives them in different places. Each block holds one compound with its values, some of them ahead of it.
Tests used:
hmGlu1 [1] = biological target: T1, hmGlu1 (Homo sapiens, UniProt Q13255); test: Calcium mobilization mGlu1 PAM assay; assay type: cell-based; settings: for Fold selective versus mGlu4: mGlu4 EC50 / mGlu1 EC50; for mGlu1 agonism / PAM profile: agonism at concentrations above 10 µM
[2] = Rat brain homogenate binding; assay type: in vitro ADME
[3] = In vitro predicted hepatic clearance, human hepatic microsomes; assay type: in vitro ADME
[4] = In vitro predicted hepatic clearance, rat hepatic microsomes; assay type: in vitro ADME
mGlu5 = mGlu5 (Homo sapiens, UniProt P41594); test: Activity at mGlu5; assay type: cell-based
Sequence of mGlu5 (P41594 21-1212): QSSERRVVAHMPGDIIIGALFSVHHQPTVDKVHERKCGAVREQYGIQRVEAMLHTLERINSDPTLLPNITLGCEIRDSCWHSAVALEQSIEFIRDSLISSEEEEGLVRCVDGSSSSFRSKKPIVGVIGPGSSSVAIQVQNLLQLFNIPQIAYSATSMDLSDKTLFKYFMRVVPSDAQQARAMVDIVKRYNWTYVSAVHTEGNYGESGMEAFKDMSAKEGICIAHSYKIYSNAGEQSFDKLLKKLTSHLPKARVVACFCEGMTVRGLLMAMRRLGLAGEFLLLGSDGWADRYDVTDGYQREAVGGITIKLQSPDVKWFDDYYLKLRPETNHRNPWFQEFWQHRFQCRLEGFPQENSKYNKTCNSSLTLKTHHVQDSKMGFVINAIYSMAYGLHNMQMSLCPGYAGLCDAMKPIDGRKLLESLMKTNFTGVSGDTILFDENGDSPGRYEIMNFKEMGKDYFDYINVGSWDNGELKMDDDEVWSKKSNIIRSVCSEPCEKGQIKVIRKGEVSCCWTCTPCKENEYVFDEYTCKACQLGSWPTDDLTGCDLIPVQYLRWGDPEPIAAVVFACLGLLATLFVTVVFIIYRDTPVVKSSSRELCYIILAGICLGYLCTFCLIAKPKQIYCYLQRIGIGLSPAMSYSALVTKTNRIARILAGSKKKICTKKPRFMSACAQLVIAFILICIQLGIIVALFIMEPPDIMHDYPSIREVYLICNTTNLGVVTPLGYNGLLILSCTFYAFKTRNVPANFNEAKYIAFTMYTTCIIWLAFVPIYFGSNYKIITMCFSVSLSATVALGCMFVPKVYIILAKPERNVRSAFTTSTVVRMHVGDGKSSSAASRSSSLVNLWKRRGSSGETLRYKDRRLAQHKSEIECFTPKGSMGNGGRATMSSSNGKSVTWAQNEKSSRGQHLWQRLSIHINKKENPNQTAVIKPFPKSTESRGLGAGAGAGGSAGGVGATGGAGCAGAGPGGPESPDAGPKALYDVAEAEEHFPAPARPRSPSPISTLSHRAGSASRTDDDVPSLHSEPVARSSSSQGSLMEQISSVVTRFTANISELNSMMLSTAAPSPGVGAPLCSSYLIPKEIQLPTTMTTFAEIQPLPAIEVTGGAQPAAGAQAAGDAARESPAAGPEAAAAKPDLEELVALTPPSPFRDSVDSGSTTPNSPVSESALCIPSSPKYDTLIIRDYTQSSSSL

[5] = human; cited from earlier work
[6] = cited from earlier work
[7] = rat; cited from earlier work
hmGlu1 [8] = biological target: T1, hmGlu1; settings: cited from earlier work

T1 sequence (Q13255 19-1194): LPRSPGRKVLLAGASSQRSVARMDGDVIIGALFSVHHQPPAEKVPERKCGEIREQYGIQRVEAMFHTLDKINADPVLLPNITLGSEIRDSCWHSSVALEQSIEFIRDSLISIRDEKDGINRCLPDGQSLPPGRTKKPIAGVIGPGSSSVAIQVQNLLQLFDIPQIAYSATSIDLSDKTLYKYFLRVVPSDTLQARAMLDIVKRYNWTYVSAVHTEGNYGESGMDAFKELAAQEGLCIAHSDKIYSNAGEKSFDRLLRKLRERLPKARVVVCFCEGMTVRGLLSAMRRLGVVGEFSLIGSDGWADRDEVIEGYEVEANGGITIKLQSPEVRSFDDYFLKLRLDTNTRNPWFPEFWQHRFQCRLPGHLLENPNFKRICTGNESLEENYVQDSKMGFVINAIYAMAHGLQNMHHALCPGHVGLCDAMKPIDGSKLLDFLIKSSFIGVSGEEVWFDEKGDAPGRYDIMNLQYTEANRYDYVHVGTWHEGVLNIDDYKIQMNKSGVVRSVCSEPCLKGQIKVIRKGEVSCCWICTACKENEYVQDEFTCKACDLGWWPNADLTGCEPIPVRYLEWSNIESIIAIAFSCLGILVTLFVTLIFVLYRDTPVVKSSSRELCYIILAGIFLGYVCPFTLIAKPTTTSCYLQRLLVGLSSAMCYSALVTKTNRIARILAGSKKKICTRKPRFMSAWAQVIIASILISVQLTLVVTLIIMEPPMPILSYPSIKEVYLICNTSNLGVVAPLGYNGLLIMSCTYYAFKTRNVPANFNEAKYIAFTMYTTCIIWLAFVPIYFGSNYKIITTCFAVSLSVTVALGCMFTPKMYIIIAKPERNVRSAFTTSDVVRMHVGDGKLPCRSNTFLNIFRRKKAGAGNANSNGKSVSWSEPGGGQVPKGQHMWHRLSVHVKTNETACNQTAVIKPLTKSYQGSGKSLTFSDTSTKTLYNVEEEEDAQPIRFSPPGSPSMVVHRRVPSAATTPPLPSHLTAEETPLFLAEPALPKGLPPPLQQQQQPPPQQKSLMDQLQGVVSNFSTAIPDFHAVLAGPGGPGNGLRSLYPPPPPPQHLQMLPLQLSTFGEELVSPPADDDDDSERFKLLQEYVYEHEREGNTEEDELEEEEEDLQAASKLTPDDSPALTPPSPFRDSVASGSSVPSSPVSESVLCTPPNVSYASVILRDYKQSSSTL

Structure (SMILES): Cc1ccoc1C(=O)Nc1ccc(N2C(=O)c3ccccc3C2=O)cc1 [10a]
Fold selective versus mGlu4 (hmGlu1 [1]): >208 fold

Structure (SMILES): Cc1ccoc1C(=O)Nc1ccc(N2C(=O)c3ccccc3C2=O)nc1 [11a]
Fold selective versus mGlu4 (hmGlu1 [1]): >25.8 fold

Structure (SMILES): Cc1ccoc1C(=O)Nc1cnc(N2C(=O)c3ccccc3C2=O)nc1 [11e]
mGlu1 versus mGlu4 PAM potency (hmGlu1 [1]): equipotent

Structure (SMILES): Cc1ccoc1C(=O)Nc1cnc(N2C(=O)c3cccc(F)c3C2=O)nc1 [11h]
mGlu1 versus mGlu4 PAM potency (hmGlu1 [1]): equipotent | Fold selective versus mGlu4 (hmGlu1 [1]): >1.88 fold

Structure (SMILES): Cc1ccoc1C(=O)Nc1ccc(N2C(=O)c3cccc(F)c3C2=O)c(Cl)c1 [compound 4]
free fraction fu [5]: 0.05 | Kp (CNS penetration) [6]: 1.02 | CLp ([6]; rat PK): 13.3 mL/min/kg | free fraction fu [7]: 0.03 | mGlu1 agonism (hmGlu1 [8]; at concentrations above 10 µM, previously observed with parent compound): considerable agonism | selectivity versus mGlu4 (hmGlu1 [8]): 35 fold

Now from value to compound, other results behind:

fraction unbound [2]: < 0.01 | predicted hepatic clearance CLHEP [3]: 9.65 mL/min/kg | Fold selective versus mGlu4 (hmGlu1 [1]): >793 fold | predicted hepatic clearance CLHEP [4]: 48.5 mL/min/kg | activity at mGlu5 (mGlu5): no activity
Structure (SMILES): Cc1ccoc1C(=O)Nc1ccc(N2C(=O)c3ccccc3C2=O)cc1F [12a]
mGlu1 agonism / PAM profile (hmGlu1 [1]): did not show any observable agonistic effect

fraction unbound [2]: < 0.01 | predicted hepatic clearance CLHEP [3]: 9.25 mL/min/kg | Fold selective versus mGlu4 (hmGlu1 [1]): >344 fold | predicted hepatic clearance CLHEP [4]: 48.7 mL/min/kg | activity at mGlu5 (mGlu5): no activity
Structure (SMILES): Cc1ccoc1C(=O)Nc1ccc(N2C(=O)c3ccccc3C2=O)cc1Cl [12b]
mGlu1 agonism / PAM profile (hmGlu1 [1]): did not show any observable agonistic effect

Fold selective versus mGlu4 (hmGlu1 [1]): >30.3 fold
Structure (SMILES): COc1cc(N2C(=O)c3ccccc3C2=O)ccc1NC(=O)c1occc1C [12e]

Source: publication PMC4758672 (Bioorganic & medicinal chemistry letters, 2015)
